Source: ChEMBL document CHEMBL1131987, “Structure-activity studies on a novel series of cholinergic channel activators based on a heteroaryl ether framework” (Bioorg Med Chem Lett, 1999)

molecular target: Neuronal acetylcholine receptor; alpha4/beta2 (Rattus norvegicus, UniProt P09483+P12390); assay: Nicotinic acetylcholine receptor binding activity was determined by ability to displace [3H]- (-) cytisine binding from whole rat brain synaptic membranes.
Sequence (P09483 whole entry): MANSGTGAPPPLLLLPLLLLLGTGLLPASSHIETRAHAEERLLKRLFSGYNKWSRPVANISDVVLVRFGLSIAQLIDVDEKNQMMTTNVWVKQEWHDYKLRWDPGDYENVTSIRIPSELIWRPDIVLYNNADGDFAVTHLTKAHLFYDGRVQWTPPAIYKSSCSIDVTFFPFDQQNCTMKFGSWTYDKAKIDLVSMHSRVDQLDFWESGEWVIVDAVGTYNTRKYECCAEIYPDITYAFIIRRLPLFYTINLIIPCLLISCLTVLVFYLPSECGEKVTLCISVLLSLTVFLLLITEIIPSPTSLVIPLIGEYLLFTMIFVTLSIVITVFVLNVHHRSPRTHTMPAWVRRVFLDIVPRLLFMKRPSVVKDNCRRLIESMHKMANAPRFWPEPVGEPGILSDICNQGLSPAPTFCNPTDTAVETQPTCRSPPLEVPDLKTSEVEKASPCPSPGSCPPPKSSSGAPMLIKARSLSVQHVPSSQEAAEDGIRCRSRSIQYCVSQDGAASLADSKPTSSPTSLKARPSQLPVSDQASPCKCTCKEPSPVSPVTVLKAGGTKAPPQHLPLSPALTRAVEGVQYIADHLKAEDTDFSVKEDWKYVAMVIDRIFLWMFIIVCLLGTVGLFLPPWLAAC
Sequence (P12390 whole entry): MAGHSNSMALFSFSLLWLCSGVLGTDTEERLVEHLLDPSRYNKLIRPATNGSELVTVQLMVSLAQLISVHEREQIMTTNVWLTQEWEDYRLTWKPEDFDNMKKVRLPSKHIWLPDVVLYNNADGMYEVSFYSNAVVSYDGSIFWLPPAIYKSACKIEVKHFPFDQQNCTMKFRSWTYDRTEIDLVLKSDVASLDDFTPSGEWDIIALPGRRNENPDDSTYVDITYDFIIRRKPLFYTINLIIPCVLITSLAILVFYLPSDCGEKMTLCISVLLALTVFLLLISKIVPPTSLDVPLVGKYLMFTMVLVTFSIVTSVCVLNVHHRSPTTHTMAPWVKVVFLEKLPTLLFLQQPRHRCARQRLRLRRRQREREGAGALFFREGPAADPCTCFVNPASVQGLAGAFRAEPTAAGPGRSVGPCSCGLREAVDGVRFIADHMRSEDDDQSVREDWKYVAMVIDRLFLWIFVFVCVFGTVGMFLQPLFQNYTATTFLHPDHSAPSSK

With `c1ccc(OCCN2CCCC2)nc1` as the compound, how does the Ki read?
Its Ki is 160 nM.

With `CN1CCC[C@H]1COc1cnccn1` as the compound, how does the Ki read?
The Ki was 16.3 nM.

For `c1cncc(OCCN2CCCC2)c1`, which Ki is on record?
Its Ki is 240 nM.

For `CN1CCC[C@@H]1COc1cnccn1`, which Ki is on record?
The Ki was 406 nM.

With `CN1CCC[C@@H]1COc1ccc(Cl)nn1` as the compound, how does the Ki read?
The Ki was 85.3 nM.

How did the Ki turn out when `c1cnc(OCCN2CCCC2)cn1` was run?
The Ki was 560 nM.

`CN1CC[C@H]1COc1ccc(Cl)nn1` was tested. Which Ki did it give?
The Ki was 63.8 nM.

How did the Ki turn out when `CN1CC[C@H]1COc1cncnc1` was run?
Its Ki is 6.54 nM.

How did the Ki turn out when `CN1CCC[C@H]1COc1cccnn1` was run?
Its Ki is 42.1 nM.

Which Ki does the source give for `CN1CC[C@H]1COc1cccnn1` here?
The Ki was 28.2 nM.

Which Ki does the source give for `Clc1ccc(OC[C@@H]2CCN2)nn1` here?
The Ki was 15.4 nM.

With `CN1CC[C@H](Oc2cccnc2)C1` as the compound, how does the Ki read?
The Ki was 2.67 nM.

For `CN1CCC[C@H]1COc1ncccn1`, which Ki is on record?
Its Ki is 1220 nM.

Which Ki does the source give for `c1ncc(OC[C@@H]2CCN2)cn1` here?
Its Ki is 0.13 nM.

`CN1CCC[C@H]1COc1ccccn1` was tested. Which Ki did it give?
The Ki was 495 nM.

How did the Ki turn out when `CN1CC[C@@H](Oc2cccnc2)C1` was run?
The Ki was 4.44 nM.

For `CN1CCC[C@H]1COc1ccc(Cl)nn1`, which Ki is on record?
The Ki was 29 nM.

How did the Ki turn out when `Clc1ccc(OCCN2CCCC2)nn1` was run?
Its Ki is 1300 nM.

`CN1CCC(Oc2ccc(Cl)nn2)C1` (configuration not stated) was tested. Which Ki did it give?
Its Ki is 46.4 nM.

With `CN1CCC(Oc2cnccn2)C1` (configuration not stated) as the compound, how does the Ki read?
The Ki was 359 nM.

With `CN1CCC(OCc2cccnc2)C1` (configuration not stated) as the compound, how does the Ki read?
The Ki was 11900 nM.

With `CN1CCC(Oc2ccccn2)C1` (configuration not stated) as the compound, how does the Ki read?
Its Ki is over 10000 nM.
